The structures appear in SMILES notation.

The target in one data set is T1, Menin-MLL interaction (Homo sapiens, UniProt O00255).
T1 construct: GST-MENIN (1-615 aa) and FITC-MLL15-43 were diluted with an FP buffer
T1 sequence (O00255 1-615 isoform O00255-1): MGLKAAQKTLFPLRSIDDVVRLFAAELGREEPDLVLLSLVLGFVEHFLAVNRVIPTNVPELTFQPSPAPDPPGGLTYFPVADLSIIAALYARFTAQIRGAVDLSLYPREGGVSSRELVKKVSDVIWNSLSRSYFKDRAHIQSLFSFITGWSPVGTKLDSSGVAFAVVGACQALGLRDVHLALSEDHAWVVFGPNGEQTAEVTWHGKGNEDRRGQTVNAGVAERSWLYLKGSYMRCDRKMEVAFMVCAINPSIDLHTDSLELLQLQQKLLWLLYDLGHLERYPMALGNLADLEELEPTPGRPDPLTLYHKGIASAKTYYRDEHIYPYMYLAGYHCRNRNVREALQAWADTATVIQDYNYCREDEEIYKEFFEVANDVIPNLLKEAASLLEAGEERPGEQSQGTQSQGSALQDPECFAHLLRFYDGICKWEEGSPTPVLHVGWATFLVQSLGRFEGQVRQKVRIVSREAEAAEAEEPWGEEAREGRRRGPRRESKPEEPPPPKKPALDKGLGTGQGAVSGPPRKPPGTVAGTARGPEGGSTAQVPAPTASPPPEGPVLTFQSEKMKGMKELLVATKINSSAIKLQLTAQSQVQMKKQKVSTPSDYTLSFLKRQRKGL
Kind of data set: Fluorescence polarization assay of Menin-MLL interaction. The following applies: GST-MENIN (1-615 aa) 8 nM, FITC-MLL15-43 8 nM; read-out: IC50 (nM) for inhibitory activity against Menin-MLL protein binding. How it is done:
The binding activity of the compounds for the menin protein was determined by a fluorescence polarization assay. GST-MENIN (1-615 aa) and FITC-MLL15-43 were diluted with an FP buffer (50 mM Tris-HCl pH 7.5, 50 mM NaCl, 1 mM DTT, 0.01% BSA), and the mixed solution of GST-MENIN (1-615 aa) at a final concentration of 8 nM and FITC-MLL15-43 at a final concentration of 8 nM was added to a black 384-well microtiter plate at 10 µL/well. The plate was centrifuged at 2500 rpm for 1 min and incubated at room temperature in the dark for 1 h. 5 µL of diluted compound (7 concentration points, 4-fold serial dilution, with blank control and negative control wells set) was added, and the plate was centrifuged at 2500 rpm for 1 min and incubated at room temperature in the dark for 3 h. After incubation, FP (480/535) values were measured using a PerkinElmer Envision multi-functional microplate reader, and the ability of the compounds to inhibit the Menin-MLL interaction was determined by calculating the inhibition rate (%) for each compound concentration according to formula 1; formula 1: inhibition rate (%) = 1 - (Maximum mP Control - mP of administration group)/(Maximum mP Control - minimum mP Control) × 100%. Four-parameter analysis was performed in GraphPad Prism software to fit dose-response curves and calculate IC50 values. A represents that IC50 < 50 nM. Table 2. Inhibitory activity against Menin-MLL protein binding
(In general: In fluorescence polarisation assays a small probe gives low polarisation when free and higher when bound to something large.)

In another data set the test system is MV-4-11 cells. Kind of data set: In vitro cell activity assay (CCK-8 proliferation), MV-4-11. The note with it: Homo sapiens, MV4-11; CCK-8, 72-120 h; read-out: IC50 (nM) for inhibitory activity against proliferation of MV-4-11 cells. It is filed as cell-based. The method, then: (§1) MOLM-13 cells or MV-4-11 cells (source: Nanjing Cobioer Biosciences Co., Ltd.) in a good growth state were taken and seeded into a 96-well plate (100 µL/well) at 2000-10000 cells/well. After the cells were cultured overnight in a cell incubator at 37 °C, the compounds were subjected to gradient dilution and added using a pipettor, with 2 parallel replicate wells in each group. Meanwhile, a control group was set. After the cells were cultured in a cell incubator at 37 °C for another 72-120 h, the detection reagent CCK-8 (manufacturer: Dojindo Laboratories, Japan; 10 µL/well) was added. After the cells were cultured at 37 °C for another 3-5 h, absorbance values were measured at […] using a PerkinElmer Envision multi-functional microplate reader. Four-parameter analysis was performed in GraphPad Prism software to fit dose-response curves and calculate IC50 values. A represents that IC50 < 50 nM. Table 1. Inhibitory activity against cell proliferation

A further data set relates to MOLM-13 cells. Kind of data set: In vitro cell activity assay (CCK-8 proliferation), MOLM-13. It is filed as cell-based. The following applies: Homo sapiens, CCK-8, 72-120 h, read-out: IC50 (nM) for inhibitory activity against proliferation of MOLM-13 cells. The method, then: as §1
A short description of data set [1]: In vitro liver microsomal stability, human. The following applies: human liver microsomes 0.5 mg/mL, compound 1 µM, 37 °C. Background: Liver microsomes are vesicles of endoplasmic reticulum, rich in cytochrome P450 enzymes.
Procedure: (§2) Liver microsome incubation samples were prepared by mixing a PBS buffer (pH 7.4), a liver microsome solution from various species (human, mouse, monkey, dog, and rat) (0.5 mg/mL), a test compound (final concentration: 1 µM), and an NADPH + MgCl2 solution, followed by incubation at 37 °C and 300 rpm. Samples were collected from the reaction solution at the time points of 15 min and 60 min. Zero-hour samples were prepared by mixing a PBS buffer (pH 7.4), a liver microsome solution (0.5 mg/mL), and a test compound. An acetonitrile solution containing an internal standard was added to the samples, and supernatants were prepared by protein precipitation, diluted, and then assayed by LC-MS/MS.
Data set [2] can be described thus: In vitro liver microsomal stability, mouse. The following applies: mouse liver microsomes 0.5 mg/mL, compound 1 µM, 37 °C.
Procedure: as §2

On to `C=C1C[C@@H]2CC[C@H]1[C@@H](C(=O)N1CC3(C1)CN(c1ncnnc1Oc1ccc(F)cc1-c1cccnc1C1CC1)C3)N2` [Compound 67], for which the IC50 on Menin-MLL interaction, with MV-4-11 cells and in the data set with MOLM-13 cells was under 50 nM each time.
Turning to `C=C1C[C@@H]2CC[C@H]1[C@@H](C(=O)N1CC3(C1)CN(c1ncnnc1Oc1ccc(F)cc1C(=O)N(CC)C(C)C)C3)N2` [Compound 56], in data set [1], the “Residuals at 60 min (%)” value was over 40%. Further, the IC50 at Menin-MLL interaction, in the data set on MV-4-11 cells and in the data set on MOLM-13 cells was under 50 nM each time.
For the compound `C=C1C[C@@H]2CC[C@H]1[C@@H](C(=O)N1CCC3(CC1)CN(c1ncnnc1Oc1ccc(F)cc1C(=O)N(CC)C(C)C)C3)N2` [Compound 27], the “Residuals at 60 min (%)” value in data set [1] is over 40%; in data set [2], over 60%. The IC50 on Menin-MLL interaction, in the data set on MV-4-11 cells and in the data set with MOLM-13 cells was under 50 nM throughout.
Regarding `C=C1C[C@@H]2CC[C@H]1[C@@H](C(=O)N1CC3(C1)CN(c1ncnnc1Oc1ccc(F)cc1-c1cncnc1C1CC1)C3)N2` [Compound 73], the IC50 at Menin-MLL interaction, with MV-4-11 cells and with MOLM-13 cells was under 50 nM throughout. In addition, the “Residuals at 60 min (%)” value in data set [2] was over 60%.
For `C=C1C[C@@H]2CC[C@H]1[C@@H](C(=O)N1CCC3(CC1)CN(c1ncnnc1Oc1ccc(F)cc1C(=O)N1C(C)CCCC1C)C3)N2` (stereo partly shown) [Compound 46], the IC50 on Menin-MLL interaction and with MV-4-11 cells was under 50 nM each time.
As to `C=C1CC2CCC1C(C(=O)N1CCC3(CC1)CN(c1ncnnc1Oc1ccc(F)cc1-c1ccnn1C1CC1)C3)N2` (stereo not shown) [Compound 70], in the data set with MV-4-11 cells, the IC50 is under 50 nM.
As to `C=C1C[C@@H]2CC[C@H]1[C@@H](C(=O)N1CCC3(CC1)CN(c1ncnnc1Oc1ccc(F)cc1-c1cc(C(F)(F)F)cnc1C1CC1)C3)N2` [Compound 54], the IC50 at Menin-MLL interaction, in the data set on MV-4-11 cells and with MOLM-13 cells was under 50 nM each time.
As for `C=C1C[C@@H]2CC[C@H]1[C@@H](C(=O)N1CCC3(CC1)CN(c1ncnnc1Oc1ccc(F)cc1-c1cncnc1C1CC1)C3)N2` [Compound 33], the IC50 at Menin-MLL interaction and in the data set on MV-4-11 cells was under 50 nM in each case. Moreover, the “Residuals at 60 min (%)” value in data set [2] is over 60%.
As for `C=C1CC2CCC1C(C(=O)N1CCC3(CC1)CN(c1ncnnc1Oc1ccc(F)cc1-c1cccnc1OC)C3)N2` (stereo not shown) [Compound 34], the IC50 in the data set on MV-4-11 cells was under 50 nM.
On to `C=C1CC2CCC1C(C(=O)N1CCCC3(CC1)CN(c1ncncc1Oc1ccc(F)cc1-c1cncnc1C1CC1)C3)N2` (stereo not shown) [Compound 77], for which the IC50 in the data set on MV-4-11 cells and in the data set on MOLM-13 cells was under 50 nM throughout.
With `C=C1CC2CCC1C(C(=O)N1CCC3(CC1)CN(c1ncnnc1Oc1c(F)cc(F)cc1-c1cccnc1C1CC1)C3)N2` (stereo not shown) [Compound 58], the IC50 in the data set on MV-4-11 cells was under 50 nM.
For the compound `C=C1C[C@@H]2CC[C@H]1[C@@H](C(=O)N1CCC3(CC1)CN(c1ncnnc1Oc1ccc(F)cc1-c1ccc(O)nc1C1CC1)C3)N2` [Compound 64], the figures for the “Residuals at 60 min (%)” value in data set [1] and in data set [2] were over 40% and over 60%, respectively. The IC50 at Menin-MLL interaction and in the data set on MV-4-11 cells was under 50 nM in each case.
With `C=C1C[C@@H]2CC[C@H]1[C@@H](C(=O)N1CCC3(CC1)CN(c1ncnnc1Oc1ccc(F)cc1-c1ccnn1C(C)C)C3)N2` [Compound 32], the IC50 on Menin-MLL interaction and with MV-4-11 cells was under 50 nM in each case.
Take `C=C1CC2CCC1C(C(=O)N1CCCC3(CC1)CN(c1ncncc1Oc1ccc(F)cc1-c1cccnc1C1CC1)C3)N2` (stereo not shown) [Compound 76]: the IC50 with MV-4-11 cells and with MOLM-13 cells was under 50 nM each time.
On to `C=C1C[C@@H]2CC[C@H]1[C@@H](C(=O)N1CCC3(CC1)CN(c1ncncc1Oc1ccc(F)cc1C(=O)N(CC)C(C)C)C3)N2` [Compound 2], for which the IC50 at Menin-MLL interaction, in the data set with MV-4-11 cells and in the data set on MOLM-13 cells was under 50 nM each time.
For `C=C1C[C@@H]2CC[C@H]1[C@@H](C(=O)N1CCC3(CC1)CN(c1ncnnc1Oc1ccc(F)cc1C(=O)N(C(C)C)C(C)C)C3)N2` [Compound 50], the IC50 at Menin-MLL interaction, in the data set with MV-4-11 cells and in the data set on MOLM-13 cells was under 50 nM throughout.
`C=C1CC2CCC1C(C(=O)N1CCC3(CC1)CN(c1ncncc1Oc1ccc(F)cc1C(=O)N(C)C(C)C)C3)N2` (stereo not shown) [Compound 6]: the IC50 in the data set on MV-4-11 cells was under 50 nM.
Same read-out and setting: the figure for `C=C1CC2CCC1C(C(=O)N1CCC3(CC1)CN(c1ncnnc1Oc1ccc(F)cc1-c1nccn1C(C)C)C3)N2` (stereo not shown) [Compound 65] is under 50 nM.
`C=C1C[C@@H]2CC[C@H]1[C@@H](C(=O)N1CC3(C1)CN(c1ncnnc1Oc1ccc(F)cc1-c1ccnn1C(C)C)C3)N2` [Compound 71]: the IC50 on Menin-MLL interaction, with MV-4-11 cells and with MOLM-13 cells was under 50 nM in each case.
In the case of `C=C1C[C@@H]2CC[C@H]1[C@@H](C(=O)N1CCC3(CC1)CN(c1ncnnc1Oc1ccc(F)cc1-c1ccnnc1C1CC1)C3)N2` [Compound 74], the IC50 on Menin-MLL interaction, in the data set on MV-4-11 cells and in the data set on MOLM-13 cells was under 50 nM each time.
For the compound `C=C1C[C@@H]2CC[C@H]1[C@@H](C(=O)N1CCC3(CC1)CN(c1ccnnc1Oc1ccc(F)cc1C(=O)N(CC)C(C)C)C3)N2` [Compound 36], the IC50 on Menin-MLL interaction, in the data set on MV-4-11 cells and in the data set with MOLM-13 cells was under 50 nM each time.
Turning to `C=C1C[C@@H]2CC[C@H]1[C@@H](C(=O)N1CCC3(CC1)CN(c1ncncc1Oc1ccc(F)cc1-c1cccnc1C1CC1)C3)N2` [Compound 3], the IC50 at Menin-MLL interaction, with MV-4-11 cells and in the data set on MOLM-13 cells was under 50 nM throughout.
For the compound `C=C1C[C@@H]2CC[C@H]1[C@@H](C(=O)N1CCC3(CC1)CN(c1ccnnc1Oc1ccc(F)cc1-c1cccnc1C1CC1)C3)N2` [Compound 35], the IC50 at Menin-MLL interaction, with MV-4-11 cells and in the data set on MOLM-13 cells was under 50 nM throughout.
In the case of `C=C1CC2CCC1C(C(=O)N1CCC3(CC1)CN(c1ncnnc1Oc1ccc(F)cc1-c1nccnc1C1CC1)C3)N2` (stereo not shown) [Compound 66], in the data set with MV-4-11 cells, the IC50 was under 50 nM.
Consider `C=C1C[C@@H]2CC[C@H]1[C@@H](C(=O)N1CCC3(CC1)CN(c1ncnnc1Oc1ccc(F)cc1-c1cnccc1OC)C3)N2` [Compound 48], for which the entries for the “Residuals at 60 min (%)” value in data set [1] and in data set [2] were over 40% and over 60%, respectively. For the same compound, the IC50 at Menin-MLL interaction was under 50 nM.
`C=C1C[C@@H]2CC[C@H]1[C@@H](C(=O)N1CCC3(CC1)CN(c1ncncc1Oc1ccc(F)cc1-c1ccnn1C(C)C)C3)N2` [Compound 4]: the IC50 on Menin-MLL interaction, with MV-4-11 cells and with MOLM-13 cells was under 50 nM throughout.
As for `C=C1C[C@@H]2CC[C@H]1[C@@H](C(=O)N1CCC3(CC1)CN(c1ncnnc1Oc1ccc(F)cc1-c1cccnc1C1CC1)C3)N2` [Compound 31], the IC50 on Menin-MLL interaction, in the data set with MV-4-11 cells and in the data set on MOLM-13 cells was under 50 nM each time.
